Assay [1] concerns voltage-gated sodium ion channels (NaV). Briefly: Assays for detecting and measuring NaV inhibition (Table 3 activity). It is filed as cell-based. The settings on record: NaV subtype and assay format not stated. Here is the method:
Compounds of the invention are useful as antagonists of voltage-gated sodium ion channels. Antagonist properties of test compounds were assessed as follows. Cells expressing the NaV of interest were placed into microtiter plates. After an incubation period, the cells were stained with fluorescent dyes sensitive to the transmembrane potential. The test compounds were added to the microtiter plate. The cells were stimulated with either a chemical or electrical means to evoke a NaV dependent membrane potential change from unblocked channels, which was detected and measured with trans-membrane potential-sensitive dyes. Antagonists were detected as a decreased membrane potential response to the stimulus. The optical membrane potential assay utilized voltage-sensitive FRET sensors described by Gonzalez and Tsien (See, Gonzalez, J. E. and R. Y. Tsien (1995) “Voltage sensing by fluorescence resonance energy transfer in single cells” Biophys J 69(4): 1272-80, and Gonzalez, J. E. and R. Y. Tsien (1997) “Improved indicators of cell membrane potential that use fluorescence resonance energy transfer” Chem Biol 4(4): 269-77) in combination with instrumentation for measuring fluorescence changes such as the Voltage/Ion Probe Reader (VIPR®) (See, Gonzalez, J. E., K. Oades, et al. (1999) “Cell-based assays and instrumentation for screening ion-channel targets” Drug Discov Today 4(9): 431-439).
VIPR® Optical Membrane Potential Assay Method with Chemical Stimulation
24 hours before the assay on VIPR, CHO cells […] expressing a NaV1.2 type voltage-gated NaV are seeded in 96-well poly-lysine coated plates at 60,000 cells per well. Other subtypes are performed in an analogous mode in a cell line expressing the NaV of interest. • 1) On the day of the assay, medium is aspirated and cells are washed twice with 225 μL of Bath Solution #2 (BS#2). • 2) A 15 μM CC2-DMPE solution is prepared by mixing 5 mM coumarin stock solution with 10% Pluronic 127 1:1 and then dissolving the mix in the appropriate volume of BS#2. • 3) After bath solution is removed from the 96-well plates, the cells are loaded with 80 μL of the CC2-DMPE solution. Plates are incubated in the dark for 30 minutes at room temperature. • 4) While the cells are being stained with coumarin, a […] oxonol solution in BS#2 is prepared. In addition to DiSBAC2(3), this solution should contain 0.75 mM ABSC1 and […] veratridine (prepared from 10 mM EtOH stock, Sigma #V-5754). • 5) After 30 minutes, CC2-DMPE is removed and the cells are washed twice with 225 μL of BS#2. As before, the residual volume should be 40 μL. • 6) Upon removing the bath, the cells are loaded with 80 μL of the DiSBAC2(3) solution, after which test compound, dissolved in DMSO, is added to achieve the desired test concentration to each well from the drug addition plate and mixed thoroughly. The volume in the well should be roughly 121 μL. The cells are then incubated for 20-30 minutes. • 7) Once the incubation is complete, the cells are ready to be assayed on VIPR® with a sodium addback protocol. 120 μL of Bath solution #1 is added to stimulate the NaV dependent depolarization. […] tetracaine was used as an antagonist positive control for block of the NaV channel. Analysis of VIPR® Data:
Data are analyzed and reported as normalized ratios of background-subtracted emission intensities measured in the 460 nm and 580 nm channels. Background intensities are then subtracted from each assay channel. Background intensities are obtained by measuring the emission intensities during the same time periods from identically treated assay wells in which there are no cells. The response as a function of time is then reported as the ratios obtained using the following formula: […]
The data is further reduced by calculating the initial (Ri) and final (Rf) ratios. These are the average ratio values during part or all of the pre-stimulation period, and during sample points during the stimulation period. […]

The conditions of assay [2]: neuropathic pain; cited from earlier work.

The text below walks through data of patent publication US8129546B2, “Derivatives for modulation of ion channels” (Vertex Pharmaceuticals Incorporated, priority 2005, dated 2012).

By IC50 is commonly meant the concentration at which inhibition is half-maximal.

Turning to `CNS(=O)(=O)C1CCN(C(=O)C(C)n2ccc3ccccc32)CC1` (centres unmarked) [Compound 1], in assay [1], the Activity entry is reported as “None”.
Consider `O=C(CCn1ccc2cc(Cl)ccc21)N1CCC(S(=O)(=O)Nc2ccccc2)CC1` [Compound 2, 1-[3-(5-chloro-1H-indol-1-yl)propanoyl]-N-phenyl-piperidine-4-sulfonamide], for which, in assay [1], the IC50 was in the range of 5 to 20 µM.
In the case of `CC(C(=O)N1CCC(S(=O)(=O)Nc2ccccc2)CC1)n1ccc2ccccc21` (centres unmarked) [Compound 3, 1-[2-(1H-Indol-1-yl)propanoyl]-N-phenyl-piperidine-4-sulfonamide], the IC50 in assay [1] lay within 5 to 20 µM.
Still for that read-out and setting: the value for `O=C(COc1ccc(F)c(Cl)c1)N1CCC(S(=O)(=O)NCc2ccccc2)CC1` [Compound 4, N-Benzyl-1-[2-(3-chloro-4-fluoro-phenoxy)acetyl]-piperidine-4-sulfonamide] was 5 to 20 µM.
Still for that read-out and setting: in the case of `O=C(COc1ccnc2c(C(F)(F)F)cccc12)N1CCC(S(=O)(=O)NCc2ccccc2)CC1` [Compound 5, N-Benzyl-1-[2-[[8-(trifluoromethyl)-4-quinolyl]oxy]acetyl]-piperidine-4-sulfonamide] it was above 20 µM.
Turning to `CN(C)S(=O)(=O)C1CCN(C(=O)CCn2ccc3cc(Cl)ccc32)CC1` [Compound 7, 1-[3-(5-Chloro-1H-indol-1-yl)propanoyl]-N,N-dimethyl-piperidine-4-sulfonamide], the IC50 in assay [1] is above 20 µM.
The same measure, in the same setting: in the case of `O=C(CCn1ccc2cc(Cl)ccc21)N1CCC(S(=O)(=O)N2CCCC2)C1` (centres unmarked) [Compound 10, 3-(5-Chloro-1H-indol-1-yl)-1-(3-pyrrolidin-1-ylsulfonylpyrrolidin-1-yl)-propan-1-one] it was 5 to 20 µM.
Consider `O=C(COc1ccnc2c(C(F)(F)F)cccc12)N1CCC(S(=O)(=O)N2CCCC2)C1` (centres unmarked) [Compound 11, 1-(3-Pyrrolidin-1-ylsulfonylpyrrolidin-1-yl)-2-[[8-(trifluoromethyl)-4-quinoly]oxy]ethanone], for which the concentration for half-maximal inhibition (IC50) in assay [1] is above 20 µM.
Same read-out and setting: in the case of `CC(C(=O)N1CCC(S(=O)(=O)Nc2ccccc2)C1)n1ccc2ccccc21` (centres unmarked) [Compound 12, 1-[2-(1H-Indol-1-yl)propanoyl]-N-phenyl-pyrrolidine-3-sulfonamide] it was 5 to 20 µM.
Still for that read-out and setting: in the case of `O=C(COc1ccc(F)c(Cl)c1)N1CCC(S(=O)(=O)NCc2ccccc2)C1` (centres unmarked) [Compound 13, N-Benzyl-1-[2-(3-chloro-4-fluoro-phenoxy)acetyl]-pyrrolidine-3-sulfonamide] it was 5 to 20 µM; in that of `O=C(COc1ccnc2c(C(F)(F)F)cccc12)N1CCC(S(=O)(=O)NCc2ccccc2)C1` (centres unmarked) [Compound 14], 5 to 20 µM; in that of `O=C(COc1ccc(F)c(Cl)c1)N1CCC(S(=O)(=O)Nc2ccccc2)C1` (centres unmarked) [Compound 15], 5 to 20 µM.
On the same count and under the same terms, in the case of `O=C(CCn1ccc2cc(Cl)ccc21)N1CCC(S(=O)(=O)Nc2ccccc2)C1` (centres unmarked) [Compound 16] it was 5 to 20 µM; in that of `CC(C(=O)N1CCC(S(=O)(=O)NCc2ccccc2)C1)n1ccc2ccccc21` (centres unmarked) [Compound 17], 5 to 20 µM.
Take `O=C(COc1ccc(F)c(Cl)c1)N1CCC(S(=O)(=O)N2CCCC2)C1` (centres unmarked) [Compound 18]: the half-inhibitory concentration (IC50) in assay [1] is above 20 µM.
Same read-out and setting: in the case of `O=C(CCn1ccc2cc(Cl)ccc21)N1CCC(S(=O)(=O)NCc2ccccc2)CC1` [Compound 19] it was 5 to 20 µM.
On to `O=C(COc1ccnc2c(C(F)(F)F)cccc12)N1CCC(S(=O)(=O)N2CCCC2)CC1` [Compound 20], for which the 50% inhibitory concentration (IC50) in assay [1] was above 20 µM.
Same read-out and setting: in the case of `CC(C(=O)N1CCC(S(=O)(=O)N2CCCC2)C1)n1ccc2ccccc21` (centres unmarked) [Compound 21] it was above 20 µM.
As to `CNS(=O)(=O)C1CCN(C(=O)COc2ccnc3c(C(F)(F)F)cccc23)CC1` [Compound 23], the IC50 in assay [1] is above 20 µM.
As for `NCC1(CC(=O)O)CCCCC1` [Gabapentin], the “share of patients in whom it works” value in assay [2] was 60%.
